# Values quoted from earlier work as cited in publication PMC4047818 (Biochemistry, 2014).
# Like-named read-outs stand apart in the source and are kept apart here.
# How the values were obtained:
# insulin receptor = system: insulin receptor; design: method as in 24 sources, one per row (each row's own in cited_ref): ref [58] = [58]; PMID 18048361; doi:10.1074/jbc.M709220200; Gauguin L.; Klaproth B.; Sajid W.; Andersen A. S.; McNeil K. A.; Forbes B. E.; De Meyts P. ( 2008 ) Structural basis for the lower affinity of the insulin-like growth factors for the insulin rec ||| ref [59] = [59]; PMID 9148904; doi:10.1074/jbc.272.20.12978; Kristensen C.; Kjeldsen T.; Wiberg F. C.; Schaffer L.; Hach M.; Havelund S.; Bass J.; Steiner D. F.; Andersen A. S. ( 1997 ) Alanine scanning mutagenesis of insulin . J. Biol. Chem. 272 , 1297 ||| ref [33] = [33]; PMID 17316105; doi:10.1089/dia.2006.0035; Becker R. H. A. ( 2007 ) Insulin glulisine complementing basal insulins: A review of structure and activity . Diabetes Technol. Ther. 9 , 109 – 121 . 17316105 10.1089/dia.2006.0035 ||| ref [60],[61] = [60]; PMID 3541911; doi:10.1042/bj2380345; Bajaj M.; Blundell T. L.; Horuk R.; Pitts J. E.; Wood S. P.; Gowan L. K.; Schwabe C.; Wollmer A.; Gliemann J.; Gammeltoft S. ( 1986 ) Coypu Insulin: Primary Structure, Conformation and Biolog || [61]; PMID 11445250; doi:10.1016/s0196-9781(01)00423-5; Conlon J. M. ( 2001 ) Evolution of the insulin molecule: Insights into structure-activity and phylogenetic relationships . Peptides 22 , 1183 – 1193 . 11445250 10.1016/s0196-9781(01)00423-5 ||| ref [66] = [66]; PMID 2268358; doi:10.1016/s0006-291x(05)80882-4; Burke G. T.; Hu S. Q.; Ohta N.; Schwartz G. P.; Zong L.; Katsoyannis P. G. ( 1990 ) Superactive insulins . Biochem. Biophys. Res. Commun. 173 , 982 – 987 . 2268358 10.1016/s0006-291x(05)80882-4 ||| ...; conditions: for relative affinity: insulin = 100
# [1] = biological target: insulin receptor (Homo sapiens) (UniProt P06213); experiment: radioligand binding
# UniProt P06213, sequence (P06213 763-1382): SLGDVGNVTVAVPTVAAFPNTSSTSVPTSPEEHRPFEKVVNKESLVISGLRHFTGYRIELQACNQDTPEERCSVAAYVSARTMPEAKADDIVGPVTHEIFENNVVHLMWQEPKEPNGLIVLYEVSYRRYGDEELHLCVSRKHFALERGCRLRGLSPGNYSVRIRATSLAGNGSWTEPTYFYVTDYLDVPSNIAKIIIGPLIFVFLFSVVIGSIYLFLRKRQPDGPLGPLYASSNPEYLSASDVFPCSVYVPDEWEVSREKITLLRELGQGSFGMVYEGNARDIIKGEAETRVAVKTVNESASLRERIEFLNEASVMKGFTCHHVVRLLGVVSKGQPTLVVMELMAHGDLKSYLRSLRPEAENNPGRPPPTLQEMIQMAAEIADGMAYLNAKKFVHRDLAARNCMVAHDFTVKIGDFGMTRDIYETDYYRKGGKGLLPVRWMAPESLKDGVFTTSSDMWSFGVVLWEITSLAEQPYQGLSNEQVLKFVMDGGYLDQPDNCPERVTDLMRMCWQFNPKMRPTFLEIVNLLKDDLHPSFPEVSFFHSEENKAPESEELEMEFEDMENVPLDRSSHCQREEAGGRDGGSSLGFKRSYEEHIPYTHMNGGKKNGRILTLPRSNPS
# insulin, sequence (P01308 90-110): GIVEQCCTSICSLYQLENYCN
substance,measurement,setting,value
"[LeuB8,desB30]winsulin: literature insulin analogue, Leu at B8, desB30",relative affinity,insulin receptor; ref (18),< 0.2%
"[AlaB5]-insulin: literature insulin analogue, Ala at B5",relative affinity,insulin receptor; ref (9),31%
"[GlyB6]winsulin: literature insulin analogue, Gly at B6",relative affinity,insulin receptor; ref (14),0.052%
"[Cys(B4–B10),desB30]-insulin: literature insulin analogue with an additional B4–B10 disulfide bond, desB30",relative affinity,insulin receptor; ref (8),132%
same,affinity,"insulin receptor; relative to HI, ref [31]",130%
"[SerB8]DKPwinsulin: DKP-insulin analogue, Ser at B8",relative affinity,"insulin receptor; ref (15, 17)",90%
"[MetB6]winsulin: literature insulin analogue, Met at B6",relative affinity,insulin receptor; ref (14),15%
"insulin glulisine: [LysB3,GluB29]-insulin analogue",affinity,"insulin receptor; relative to wild type, ref [33]",wild-type-like affinity
"[SerB3]-insulin: literature insulin analogue, Ser at B3",relative affinity,insulin receptor; ref (7),97%
same,binding affinity,"insulin receptor; relative to HI, ref [58]",97%
[ArgB5]winsulin: insulin with naturally occurring ArgB5 mutation,relative affinity,insulin receptor; ref (10),40%
"[SerB8,desB30]winsulin: literature insulin analogue, Ser at B8, desB30",relative affinity,insulin receptor; ref (18),23%
same,IR affinity relative to HI,"insulin receptor; published analogues, ref Table S5 of the Supporting Information",23%
"[AspB5]-insulin: literature insulin analogue, Asp at B5",relative affinity,insulin receptor; ref (12),0.4%
same,binding affinity,"insulin receptor; relative to HI, ref [66]",0.4%
"[AlaB1]winsulin: literature insulin analogue, Ala at B1",relative affinity,insulin receptor; ref (6),79%
"DKPwinsulin: monomeric insulin analogue containing three substitutions in the B-chain (AspB10, LysB28, ProB29)",relative affinity,insulin receptor; ref (15),160%
"[PheB6]winsulin: literature insulin analogue, Phe at B6",relative affinity,insulin receptor; ref (14),10%
insulin (from UniProt P01308),Kd,[1],0.3 nM
"[AlaB4]winsulin: literature insulin analogue, Ala at B4",relative affinity,insulin receptor; ref (6),54%
"[AlaB5]DKPwinsulin: DKP-insulin analogue, Ala at B5",relative affinity,insulin receptor; ref (13),129%
"[AlaB2]winsulin: literature insulin analogue, Ala at B2",relative affinity,insulin receptor; ref (6),110%
"[ValB6]winsulin: literature insulin analogue, Val at B6",relative affinity,insulin receptor; ref (14),3.3%
"[AlaB3]-insulin: literature insulin analogue, Ala at B3",relative affinity,insulin receptor; ref (6),134%
same,binding affinity,"insulin receptor; relative to HI, ref [59]",134%
"[ProB3]-insulin: literature insulin analogue, Pro at B3",relative affinity,insulin receptor; ref (7),54%
same,binding affinity,"insulin receptor; relative to HI, ref [58]",54%
"[AsnB5]winsulin: literature insulin analogue, Asn at B5",relative affinity,insulin receptor; ref (12),46%
"[ThrB8,desB30]winsulin: literature insulin analogue, Thr at B8, desB30",relative affinity,insulin receptor; ref (18),< 0.2%
"[AlaB6]winsulin: literature insulin analogue, Ala at B6",relative affinity,"insulin receptor; ref (6, 14)",1.4%
